Reference: patent publication US20240287042A1, “NOVEL COMPOUND HAVING INHIBITORY ACTIVITY AGAINST PENDRIN, AND PHARMACEUTICAL USES THEREOF” (UIF (University Industry Foundation), Yonsei University, priority 2021, published 2024)

Target: T1, human wild-type (WT)-pendrin (Homo sapiens, UniProt O43511)
T1 construct: expressed in transfected cells
T1 sequence (O43511 1-780): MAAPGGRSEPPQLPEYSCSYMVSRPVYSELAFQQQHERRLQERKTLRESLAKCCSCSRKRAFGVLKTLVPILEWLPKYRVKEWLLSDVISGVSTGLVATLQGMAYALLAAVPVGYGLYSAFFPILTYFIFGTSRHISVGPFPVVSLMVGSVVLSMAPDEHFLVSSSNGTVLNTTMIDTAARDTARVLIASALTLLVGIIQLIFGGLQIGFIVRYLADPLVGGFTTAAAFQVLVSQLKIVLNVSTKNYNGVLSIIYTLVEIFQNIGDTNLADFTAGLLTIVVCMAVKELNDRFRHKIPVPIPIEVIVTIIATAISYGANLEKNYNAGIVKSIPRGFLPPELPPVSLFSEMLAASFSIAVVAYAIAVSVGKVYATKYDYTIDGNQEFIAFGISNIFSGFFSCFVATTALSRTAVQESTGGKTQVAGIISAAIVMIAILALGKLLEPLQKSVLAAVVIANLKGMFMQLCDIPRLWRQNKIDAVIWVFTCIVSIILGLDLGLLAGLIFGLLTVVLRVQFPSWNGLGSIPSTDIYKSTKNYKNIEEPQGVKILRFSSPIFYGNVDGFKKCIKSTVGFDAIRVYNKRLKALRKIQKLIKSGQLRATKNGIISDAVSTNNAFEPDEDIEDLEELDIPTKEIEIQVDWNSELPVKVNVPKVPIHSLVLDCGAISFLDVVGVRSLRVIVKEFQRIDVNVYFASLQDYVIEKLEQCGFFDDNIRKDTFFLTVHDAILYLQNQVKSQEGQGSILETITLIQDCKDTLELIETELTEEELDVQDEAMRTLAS
Experiment: Pendrin Cl−/I− exchange inhibitory activity, YFP fluorescence in CHO-K1 cells
Format: cell-based
Settings: CHO-K1; for inhibition at 1 µM: compound concentration 1 μM; for inhibition at 3 µM: compound concentration 3 μM; for inhibition at 10 µM: compound concentration 10 μM; for inhibition at 30 µM: compound concentration 30 μM; for inhibition at 100 µM: compound concentration 100 μM
Protocol: Chinese hamster ovary (CHO)-K1 cells were cultured in DMEM medium containing 10% fetal bovine serum (FBS), 100 units/ml of penicillin and 100 μg/ml streptomycin. CHO-K1 cells were stably transfected with pcDNA3.1 encoding the halide sensor YFP-H148Q/I152L/F46L and human wild-type (WT)-pendrin.
(§1) CHO-K1 cells expressing human WT pendrin and YFP-F46L/H148Q/I152L were plated in 96-well microplates at a density of 2×10^4 cells per well, and cultured for 48 hours. Each well of the cell cultured 96-well plate was washed 2 times with 200 μL of PBS, and filled with 50 μL of HEPES buffered solution (140 mM NaCl, 5 mM KCl, 1 mM MgCl2, 1 mM CaCl2), 10 mM glucose and 10 mM HEPES (pH 7.4)). Test compounds (1 μL) were added to a final concentration of 1, 3, 10, 30 and 100 μM. After culturing at 37° C. for 10 minutes, the 96-well plate was located on the FLUOstar Omega Microplate Reader (BMG Labtech, Ortenberg, Germany) for a fluorescence assay. Fluorescence was recorded continuously (400 ms per point) for 1 second (baseline), whereby each well was assayed individually for pendrin-mediated I-influx. Then 50 μL of Na-substituted HEPES buffered solution (replacing NaCl with NaI) was added using a liquid injector at 1 second, and YFP fluorescence was recorded for 5 seconds. The initial iodide influx rate was determined from the initial slope of fluorescence by nonlinear regression, after the injection of iodide.
as §1, with “Chinese hamster ovary (CHO)-K1 cells were cultured in DMEM medium containing 10% fetal bovine serum (FBS), 100 units/ml of penicillin and 100 μg/ml streptomycin. CHO-K1 cells were stably transfected with pcDNA3.1 encoding the halide sensor YFP-H148Q/I152L/F46L and human wild-type (WT)-pendrin. 3-2: Assay of Cl^−/I^− exchange activity CHO-K1” for “CHO-K1”, “50” for “1, 3, 10, 30 and 100”, “Then,” for “Then”, “NaI-substituted” for “Na-substituted”

SMILES: O=C(O)c1[nH]c2ccc(Cl)cc2c1CC(=O)N1CCN(c2ccc(C(F)(F)F)cc2)CC1 [YPI-A4779, 5-Chloro-3-(2-oxo-2-(4-(4-(trifluoromethyl)phenyl)piperazin-1-yl)ethyl)-1H-indole-2-carboxylic acid]
- inhibition at 1 µM: < 20%
- inhibition at 3 µM: < 20%
- inhibition at 10 µM: 66.7%
- inhibition at 30 µM: 92.7%
- inhibition at 100 µM: 95.3%

SMILES: O=C(O)c1[nH]c2ccc(Cl)cc2c1CC(=O)N1CCN(c2ccccc2C(F)(F)F)CC1 [YPI-A4781, 5-Chloro-3-(2-oxo-2-(4-(2-(trifluoromethyl)phenyl)piperazin-1-yl)ethyl)-1H-indole-2-carboxylic acid]
- inhibition at 1 µM: < 20%
- inhibition at 3 µM: 21.5%
- inhibition at 10 µM: 71.4%
- inhibition at 30 µM: 93.8%
- inhibition at 100 µM: 95.6%

SMILES: Cc1cccc(C)c1N1CCN(C(=O)Cc2c(C(=O)O)[nH]c3ccc(Cl)cc23)CC1 [YPI-A4783, 5-Chloro-3-(2-(4-(2,6-dimethylphenyl)piperazin-1-yl)-2-oxoethyl)-1H-indole-2-carboxylic acid]
- inhibition at 1 µM: 39.9%
- inhibition at 3 µM: 74.5%
- inhibition at 10 µM: 100%
- inhibition at 30 µM: 100%
- inhibition at 100 µM: 100%

SMILES: Cc1cccc(N2CCN(C(=O)Cc3c(C(=O)O)[nH]c4ccc(Cl)cc34)CC2)c1C [YPI-A4799, 5-Chloro-3-(2-(4-(2,3-dimethylphenyl)piperazin-1-yl)-2-oxoethyl)-1H-indole-2-carboxylic acid]
- inhibition at 1 µM: 27.9%
- inhibition at 3 µM: 65.3%
- inhibition at 10 µM: 94.2%
- inhibition at 30 µM: 95.5%
- inhibition at 100 µM: 97.1%

SMILES: Cc1ccc(N2CCN(C(=O)Cc3c(C(=O)O)[nH]c4ccc(Cl)cc34)CC2)c(C)c1 [YPI-A4801, 5-Chloro-3-(2-(4-(2,4-dimethylphenyl)piperazin-1-yl)-2-oxoethyl)-1H-indole-2-carboxylic acid]
- inhibition at 1 µM: 40.9%
- inhibition at 3 µM: 72.8%
- inhibition at 10 µM: 95.4%
- inhibition at 30 µM: 96.7%
- inhibition at 100 µM: 97.4%

SMILES: O=C(O)c1[nH]c2ccc(Cl)cc2c1CC(=O)N1CCN(c2ccccc2Cl)CC1 [YPI-A4803, 5-Chloro-3-(2-(4-(2-chlorophenyl)piperazin-1-yl)-2-oxoethyl)-1H-indole-2-carboxylic acid]
- inhibition at 1 µM: < 20%
- inhibition at 3 µM: < 20%
- inhibition at 10 µM: 39.4%
- inhibition at 30 µM: 73.9%
- inhibition at 100 µM: 95.7%

SMILES: O=C(O)c1[nH]c2ccc(Cl)cc2c1CC(=O)N1CCN(c2ccc(Cl)cc2)CC1 [YPI-A4843, 5-Chloro-3-(2-(4-(4-chlorophenyl)piperazin-1-yl)-2-oxoethyl)-1H-indole-2-carboxylic acid]
- inhibition at 1 µM: < 20%
- inhibition at 3 µM: < 20%
- inhibition at 10 µM: 40.3%
- inhibition at 30 µM: 91.4%
- inhibition at 100 µM: 92.1%

SMILES: O=C(O)c1[nH]c2ccc(Cl)cc2c1CC(=O)N1CCN(c2ccccc2Br)CC1 [YPI-A4844, 3-(2-(4-(2-Bromophenyl)piperazin-1-yl)-2-oxoethyl)-5-chloro-1H-indole-2-carboxylic acid]
- inhibition at 1 µM: < 20%
- inhibition at 3 µM: < 20%
- inhibition at 10 µM: 59.7%
- inhibition at 30 µM: 92.5%

SMILES: O=C(O)c1[nH]c2ccc(Cl)cc2c1CC(=O)N1CCN(c2cccc(Br)c2)CC1 [YPI-A4845, 3-(2-(4-(3-Bromophenyl)piperazin-1-yl)-2-oxoethyl)-5-chloro-1H-indole-2-carboxylic acid]
- inhibition at 1 µM: < 20%
- inhibition at 3 µM: < 20%
- inhibition at 10 µM: 35.1%
- inhibition at 30 µM: 88.8%

SMILES: O=C(O)c1[nH]c2ccc(Cl)cc2c1CC(=O)N1CCN(c2ccc(Br)cc2)CC1 [YPI-A4846, 3-(2-(4-(4-Bromophenyl)piperazin-1-yl)-2-oxoethyl)-5-chloro-1H-indole-2-carboxylic acid]
- inhibition at 1 µM: < 20%
- inhibition at 3 µM: < 20%
- inhibition at 10 µM: 73.3%
- inhibition at 30 µM: 94.7%
